These results are taken from patent US20070178045A1, “Cyclopeptide derivatives with anti-integrin activity” (priority 2004, published 2007).

Test [1] deals with T1, purified αvβ3 receptor (Homo sapiens, UniProt P05106+P06756).
T1 construct: purchased Chemicon CC1020
Description: Binding to integrin αvβ3 receptors ([125I]echistatin competition). The following applies: inhibition of [125I]echistatin 0.05 nM binding to purified αvβ3 receptor; read-out: αvβ3 IC50 ± SD. As for the experimental part:
Binding to Integrin αvβ3 Receptors
(§1) An aliquot of 100 μl was added to 96-well plates and incubated overnight at +4° C. Plates were washed once with buffer (50 mM Tris, pH 7.4, 100 mM NaCl, 2 mM CaCl2, 1 mM MgCl2, 1 mM MnCl2, 1% bovine serum albumin) and then incubated for another 2 hours at room temperature. Plates were washed twice with the same buffer and incubated for 3 hours at room temperature with the radioactive ligand [^125I]echistatin (Amersham Pharmacia Biotech) 0.05 nM in the presence of competition ligands. At the end of incubation, the wells were washed and the radioactivity determined using a gamma counter (Packard). Non-specific binding of the ligand was determined in the presence of excess cold echistatin (1 μM).
(§2) Evaluation of IC50 Parameters
(§3) The IC50 parameter was elaborated using “ALLFIT” software.

Test [2] concerns the target T2, purified αvβ5 receptor (Homo sapiens, UniProt P06756+P18084).
T2 construct: purchased Chemicon CC1020
The test is described as follows: Binding to integrin αvβ5 receptors ([125I]echistatin competition). The following applies: inhibition of [125I]echistatin 0.15 nM binding to purified αvβ5 receptor; read-out: αvβ5 IC50 ± SD. How it is done: Binding to Integrin αvβ5 Receptors
as §1, with “0.15” for “0.05”, “Non-specific ligand” for “Non-specific”, “binding” for “binding of the ligand”
as §2, §3

Test [3] has as its system PC3 prostate carcinoma cells. The format is cell-based, human. The following applies: read-out: PC3 IC50, μM 3 h of treatm., cell adhesion to vitronectin, PC3 low levels of both integrins. How it is done: (§4) Adhesion Assay of Tumor Cells on Vitronectin
(§5) A2780 human ovarian carcinoma and PC3 prostate carcinoma cells were grown in RPMI 1640 containing 10% fetal bovine serum and 50 μg/ml gentamycin sulfate. A498 human renal carcinoma were grown in EMEM containing 10% fetal bovine serum and 50 μg/ml gentamycin sulfate. All the cells were maintained in a 37° C. incubator with saturated humidity and an atmosphere of 95% air and 5% CO2.
(§6) A2780 cell line expresses high levels of αvβ5 integrins, A498 high levels of αvβ3 integrins, and PC3 low levels of both integrins.
To test the effect of the drugs on cell adhesion, the appropriate cellular density (40000-50000 cells/well) for each tumor cell line was incubated with different concentrations of the compounds in 96-well tissue culture plates coated with vitronectin (5 μg/ml) and was allowed to attach for 3 hours. After this time the cells were washed once with PBS containing Ca^2+ e Mg^2+. Tumor cells were fixed with 4% paraformaldehyde for 10 min at room temperature and stained with 1% toluidine blue for 10 min at room temperature. […] The number of adherent cells was determined in a microplate reader (Victor2, EG&G Wallac) at 600 nm.
(§7) An IC50 value as parameter to measure the inhibiting effect of the molecules on tumor cell adhesion to vitronectin was evaluated using “ALLFIT” computer program.

In test [4] the test system is A2780 human ovarian carcinoma. The format is cell-based. The following applies: read-out: A2780 IC50, μM 3 h of treatm., cell adhesion to vitronectin, A2780 high levels of αvβ5 integrins. How it is done:
as §4, §5, §6
(§8) To test the effect of the drugs on cell adhesion, the appropriate cellular density (40000-50000 cells/well) for each tumor cell line was incubated with different concentrations of the compounds in 96-well tissue culture plates coated with vitronectin (5 μg/ml) and was allowed to attach for 3 hours. After this time the cells were washed once with PBS containing Ca^2+ e Mg^2+. Tumor cells were fixed with 4% paraformaldehyde for 10 min at room temperature and stained with 1% toluidine blue for 10 min at room temperature. Tumor cells were washed with bi-distilled water, dried and solubilized with 1% SDS. The number of adherent cells was determined in a microplate reader (Victor2, EG&G Wallac) at 600 nm.
as §7

Test [5] relates to A498 human renal carcinoma. It is filed as cell-based. The following applies: read-out: A498 IC50, μM 3 h of treatm., cell adhesion to vitronectin, A498 high levels of αvβ3 integrins. As for the experimental part: as §4, §5, §6, §8, §7

“And” between values parts separate entries of the source, which are not always exact repeats. Identical values can stand only once.

One may read the IC50 as the midpoint of a concentration-inhibition curve.

For the molecule `N=C(N)NCCC[C@@H]1NC(=O)[C@H](Cc2ccc(CN)cc2)NC(=O)[C@@H](Cc2ccccc2)NC(=O)[C@H](CC(=O)O)NC(=O)CNC1=O` [ST2581, c(Arg-Gly-Asp-D-Phe-Amp)], the values for the IC50 in test [1] and in test [2] were 1.7 nM and 3.4 ± 0.1 nM, respectively.
For `COCCOCCOCCOCC(=O)NCc1ccc(C[C@@H]2NC(=O)[C@@H](Cc3ccccc3)NC(=O)[C@H](CC(=O)O)NC(=O)CNC(=O)[C@H](CCCNC(=N)N)NC2=O)cc1` [ST2597, c[Arg-Gly-Asp-D-Phe-Amp(CO—CH2—(OCH2CH2)3—OCH3)]], in that order: 13.5 ± 0.8 nM and 2.1 ± 0.07 nM.
With `N=C(N)NCCC[C@@H]1NC(=O)[C@H](Cc2ccc(CNC(=O)CCC(=O)O)cc2)NC(=O)[C@@H](Cc2ccccc2)NC(=O)[C@H](CC(=O)O)NC(=O)CNC1=O` [ST2649, c[Arg-Gly-Asp-D-Phe-Amp-(CH2)2COOH]], the IC50 in test [1] was 37.6 ± 0.9 nM; in test [2], 5.1 ± 0.07 nM; in test [3], 33.7 ± 7.8 µM; in test [4], 9.5 ± 1.9 µM; in test [5] it was 34 ± 2.2 µM.
On to `N=C(N)NCCC[C@@H]1NC(=O)[C@H](Cc2ccc(CNC(=O)COCCOCCOCC(=O)O)cc2)NC(=O)[C@@H](Cc2ccccc2)NC(=O)[C@H](CC(=O)O)NC(=O)CNC1=O` [ST2661, c[Arg-Gly-Asp-D-Phe-Amp-(CO—CH2—(O—CH2—CH2)2—O—CH2—COOH]], for which the half-maximal inhibitory concentration (IC50) in test [3] was 18.8 ± 4.4 µM; in test [4] it was 12.3 ± 0.9 µM; in test [5], 10.7 ± 0.4 µM.
Turning to `CN1C(=O)[C@@H](Cc2ccccc2)NC(=O)[C@H](CC(=O)O)NC(=O)CNC(=O)[C@H](CCCNC(=N)N)NC(=O)[C@@H]1Cc1ccc(CN)cc1` [ST2700, c(Arg-Gly-Asp-D-Phe-N-Me-Amp)], the IC50 in test [1] is 7 nM and 7.2 nM; in test [2] it was 0.99 nM.
Turning to `N=C(N)NCCC[C@@H]1NC(=O)CN(Cc2ccc(CN)cc2)C(=O)[C@@H](Cc2ccccc2)NC(=O)[C@H](CC(=O)O)NC(=O)CNC1=O` [ST2701, c(Arg-Gly-Asp-D-Phe-N-Amb-Gly)], the IC50 in test [1] came to 36.7 ± 0.7 nM; in test [2], 2.9 ± 0.1 nM.
Turning to `CC(C)[C@H]1C(=O)N[C@@H](CCCNC(=N)N)C(=O)NCC(=O)N[C@@H](CC(=O)O)C(=O)N[C@H](Cc2ccccc2)C(=O)N1CCCCCC(=O)O` [ST2956, c[Arg-Gly-Asp-D-Phe-N(carboxypentilene)-Val)]], the 50% inhibitory concentration (IC50) in test [1] was determined as 30 ± 0.9 nM; in test [2], 34 ± 1.4 nM.
With `C=CCOC(=O)CCCCCN1C(=O)[C@@H](Cc2ccccc2)NC(=O)[C@H](CC(=O)O)NC(=O)CNC(=O)[C@H](CCCNC(=N)N)NC(=O)[C@@H]1C(C)C` [ST2957, c[Arg-Gly-Asp-D-Phe-N(allyloxycarbonylpentilene)-Val]], the figures for the IC50 in test [1] and in test [2] were 42.2 ± 0.7 nM and 38.3 ± 1.3 nM, respectively.
